Test results published in patent publication US12448363B2, “Kinase inhibitors” (Vidya Therapeutics, Inc., priority 2020, dated 2025).

Columns and labels:
[1] = Plasma and total brain concentrations at 1 h post a single oral administration to female C57BL/6 mice; assay type: in vivo; conditions: mouse, 1 h post single oral 10 mg/kg, LC-MS/MS, read-out: Brain:plasma ratio
Procedure: Determination of Plasma and Total Brain Concentrations at 1 h Post a Single Oral Administration of Test Compound to Female C57BL/6 Mice
The appropriate amount of test article was dissolved 10% dimethylacetamide (DMA)/90% (20% hydroxypropyl-b-cyclodextrin (HP-β-CD) w/v in water to obtain a final concentration of 1 mg/mL for oral dosing. Sonication, vortex, and homogenization was used as needed. Three female C57BL/6 mice aged 7-9 weeks (20-30 grams) were dosed by oral gavage 10 mg/kg solution of the test article.
Concentrations of representative test compounds in the plasma and brain samples (using plasma and brain homogenate standard curve for all samples appropriately) were analyzed using LC-MS/MS. With respect to the brain:plasma ratio, Table 11 lists the results as follows: • “A” denotes a ratio >0.5; • “B” denotes a ratio between 0.1 and 0.5; and • “C” denotes a ratio <0.1.

BTK [2] = molecular target: T1, BTK (Homo sapiens, UniProt Q06187); assay: Assay to determine activity against BTK (EZ reader, FLPeptide); assay type: biochemical; parameters: purchased Carna; conditions: ATP (1 mM), BTK (2 nM), room temperature for 90 minutes
Summary of the method: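 Human BTK (2 nM) phosphorylated FLPeptide (1.5 uM) with 1 mM ATP in 50 mM HEPES pH7.5, 10 mM MgCl2, 2 mM DTT, 1 mM EGTA, 0.01% Brij-35, 0.05% BSA; 11-point 3-fold compound dilutions. After 90 min at room temperature, EDTA stop; conversion ratio read on EZ reader, IC50 from curve fit with free top and bottom.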

BTK [3] = molecular target: T1, BTK; assay: Assay to determine BTK inactivation rate in human whole blood (ELISA of unoccupied BTK); assay type: cell-based; parameters: Human whole blood is obtained from StemExpress; tissue StemExpress; host or cells: human whole blood; conditions: 37° C., 5, 15, 30, 60 minutes; for kinact/KI: read-out: BTK hWB Kinact/Ki
Procedure: Human Whole Blood Compound Treatment and Lysis
Human whole blood is obtained from StemExpress and kept at ambient temperature until the time of the experiment. […] This is prepared fresh each experimental day. […] Compounds are reconstituted to stocks of 10 mM and are diluted in two-fold serial dilutions to generate an 8-point curve in DMSO, with the last point being DMSO only, creating a 100× dilution series. A working 10× dilution series is created using 1.0 μL of the prepared DMSO titration, 100×, into […] 1×PBS in order to keep the DMSO constant. The human whole blood is added in the volume of 225 μL per well in a new 96w v-bottom plate, where one column of eight wells is sufficient for testing one compound. For compound treatment, 25 μL of 10× dilution series in PBS is added to the 225 μL whole blood, followed by briefly pipetting up and down twice. The plates are covered with lids and incubated at 37° C. for 5, 15, 30, 60 minutes. At each timepoint, 30 μL of treated blood is pulled from each column and added to preloaded collection plates that contain 30 μL of supplemented lysis buffer and mixed briefly. The collected and lysed samples shake on rotator for 60 minutes at room temperature. These samples are used fresh for detection via ELISA, and remaining sample is frozen at −80° C. if a repeat is necessary.
ELISA: Determining Amount of Unoccupied BTK
All streptavidin pre-coated plates (R&D Systems, #CP004) are brought to room temperature while samples are lysing. Assay Buffer 1, 1×PBS+0.05% Tween 20+1% BSA is prepared and stored at 4° C. when not in use. Using this Assay Buffer, assay buffer+1× protease/phosphatase inhibitor cocktail (PICs) is prepared in the amount needed for all samples. Assay Buffer+PICs in the volume of 90 μL/well is added to the ELISA plate. Lysed blood sample (10 μL) is added to the ELISA plate. BTK recombinant protein dilutions are prepared in assay buffer+PICS for use as a μM). The standard is loaded into the ELISA plate at 100 μL/well, in duplicate. These samples and standards remain in the plate, sealed, overnight at 4° C. The following day, the plate is washed four times with 1× Wash Buffer (1×PBS+0.05% Tween 20) using a plate washer. The plate is inverted to expel all fluid each time and blotted on clean paper towels to remove remaining liquid. Assay Buffer 2 is prepared (1×PBS+0.05% Tween 20+0.05% BSA) and kept at 4° C. when not in use. […] Diluted a-BTK antibody is added at 100 μl/well. The plate is covered with adhesive film and incubated for 90 minutes at room temperature. The plate is washed four times with 1× Wash Buffer (1×PBS+0.05% Tween 20) using a plate washer. The plate is inverted to expel all fluid each time and blotted on clean paper towels to remove remaining liquid. […] The diluted antibody is added at 100 μl/well. The plate is covered with adhesive film and incubated for one hour at room temperature. The plate is washed four times with 1× Wash Buffer using a plate washer. The plate is inverted to expel all fluid each time and blotted on clean paper towels to remove remaining liquid. […] The plate is incubated at room temperature in the dark for −5-10 minutes. The reaction is stopped by adding 50 μl/well 2N sulfuric acid (H2SO4) (R&D Systems, #DY994). The plate is read in a plate reader at the wavelengths […] and 570 nm (correction wavelength). Using Graphpad Prism, an XY table+graph is created, listing 0-60 minutes as X axis and concentration as Y axis. A One Phase Decay model fit is applied to the data. Checking Results table, the K values are obtained and new XY table+graph are created. Concentration is assigned to the X axis and K values from first analysis are entered. The Michaelis-Menten equation is applied to the data.

T1 sequence (Q06187 whole entry): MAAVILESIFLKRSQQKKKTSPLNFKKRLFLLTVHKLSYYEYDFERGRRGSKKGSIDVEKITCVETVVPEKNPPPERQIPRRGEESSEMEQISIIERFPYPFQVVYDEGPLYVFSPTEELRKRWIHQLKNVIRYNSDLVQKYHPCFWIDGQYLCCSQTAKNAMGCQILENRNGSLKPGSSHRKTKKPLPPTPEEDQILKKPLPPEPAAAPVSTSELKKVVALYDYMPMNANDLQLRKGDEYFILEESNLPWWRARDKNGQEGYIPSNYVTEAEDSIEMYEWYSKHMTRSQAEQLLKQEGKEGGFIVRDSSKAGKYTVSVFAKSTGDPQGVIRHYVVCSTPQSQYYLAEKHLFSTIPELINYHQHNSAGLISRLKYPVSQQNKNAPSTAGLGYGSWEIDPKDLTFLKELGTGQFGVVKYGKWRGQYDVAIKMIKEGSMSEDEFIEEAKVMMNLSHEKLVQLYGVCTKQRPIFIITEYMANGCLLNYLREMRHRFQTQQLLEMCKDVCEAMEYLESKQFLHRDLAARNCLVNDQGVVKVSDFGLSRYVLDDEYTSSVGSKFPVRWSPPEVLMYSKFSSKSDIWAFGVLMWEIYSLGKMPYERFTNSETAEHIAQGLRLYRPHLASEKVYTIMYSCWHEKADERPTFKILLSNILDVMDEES

| Compound | Kp at 1 h [1] | IC50 (BTK [2]) [nM] | BTK hWB Kinact/Ki (BTK [3]) | kinact/KI (BTK [3]) [M⁻¹ s⁻¹] |
| --- | --- | --- | --- | --- |
| C=CC(=O)N1CCC[C@@H](c2c(F)cc(C(N)=O)c3[nH]c(C)c(Cl)c23)C1 [Compound 2a, (S)-4-(1-acryloylpiperidin-3-yl)-3-chloro-5-fluoro-2-methyl-1H-indole-7-carboxamide] | 0.1 to 0.5 | < 10 | – | > 16700 |
| C=CC(=O)N1CCC=C(c2c(F)cc(C(N)=O)c3[nH]c(C)c(Cl)c23)C1 [Compound 1, 4-(1-acryloyl-1,2,5,6-tetrahydropyridin-3-yl)-3-chloro-5-fluoro-2-methyl-1H-indole-7-carboxamide] | < 0.1 | < 10 | – | > 16700 |
| C=CC(=O)N1CCC[C@H](c2c(F)c(F)c(C(N)=O)c3[nH]c(C)c(F)c23)C1 [Compound 6a, (R)-4-(1-acryloylpiperidin-3-yl)-3,5,6-trifluoro-2-methyl-1H-indole-7-carboxamide] | 0.1 to 0.5 | < 10 | – | > 16700 |
| CC#CC(=O)N[C@H]1C[C@H](F)CN(c2c(F)cc(C(N)=O)c3[nH]c(C)c(C)c23)C1 [Compound 35, 4-((3S,5S)-3-(but-2-ynamido)-5-fluoropiperidin-1-yl)-5-fluoro-2,3-dimethyl-1H-indole-7-carboxamide] | < 0.1 | < 10 | – | > 16700 |
| C=CC(=O)N1CCC[C@@H](c2c(F)c(F)c(C(N)=O)c3[nH]c(C)c(Cl)c23)C1 [Compound 16, (S)-4-(1-acryloylpiperidin-3-yl)-3-chloro-5,6-difluoro-2-methyl-1H-indole-7-carboxamide] | 0.1 to 0.5 | < 10 | – | > 16700 |
| CC#CC(=O)N[C@H]1C[C@@H](F)CN(c2c(F)cc(C(N)=O)c3[nH]c(C)c(C)c23)C1 [Compound 33, 4-((3S,5R)-3-(but-2-ynamido)-5-fluoropiperidin-1-yl)-5-fluoro-2,3-dimethyl-1H-indole-7-carboxamide] | < 0.1 | < 10 | – | > 16700 |
| C=CC(=O)N1CCC[C@@H](c2c(F)c(F)c(C(N)=O)c3[nH]c(C)c(F)c23)C1 [Compound 6b, (S)-4-(1-acryloylpiperidin-3-yl)-3,5,6-trifluoro-2-methyl-1H-indole-7-carboxamide] | 0.1 to 0.5 | < 10 | – | > 16700 |
| C=CC(=O)N1CCC2CCN(c3c(F)cc(C(N)=O)c4[nH]c(C)c(Cl)c34)CC21 (racemic) [Compound 29, 4-(1-acryloyloctahydro-6H-pyrrolo[2,3-c]pyridin-6-yl)-3-chloro-5-fluoro-2-methyl-1H-indole-7-carboxamide] | 0.1 to 0.5 | 10 to 100 | – | 1670 to 16700 |
| CC#CC(=O)N[C@H]1C[C@@H](F)CN(c2c(F)cc(C(N)=O)c3[nH]c(C)c(Cl)c23)C1 [Compound 27, 4-((3S,5R)-3-(but-2-ynamido)-5-fluoropiperidin-1-yl)-3-chloro-5-fluoro-2-methyl-1H-indole-7-carboxamide] | 0.1 to 0.5 | < 10 | – | 1670 to 16700 |
| CC#CC(=O)N1CCCC2CN(c3c(F)cc(C(N)=O)c4[nH]c(C)c(Cl)c34)CC21 (stereo not drawn) [Compound 40, 4-(1-(but-2-ynoyl)octahydro-6H-pyrrolo[3,4-b]pyridin-6-yl)-3-chloro-5-fluoro-2-methyl-1H-indole-7-carboxamide] | > 0.5 | < 10 | – | < 1670 |

Other lines, results leading:

| Kp at 1 h [1] | IC50 (BTK [2]) [nM] | BTK hWB Kinact/Ki (BTK [3]) | kinact/KI (BTK [3]) [M⁻¹ s⁻¹] | Compound |
| --- | --- | --- | --- | --- |
| < 0.1 | 10 to 100 | C (a Kinact/Ki<1×10^−4 nM^−1 min^−1) | – | C=CC(=O)N1CCC2CCN(c3c(F)cc(C(N)=O)c4[nH]c(C)c(C)c34)CC21 (single isomer, unassigned) [Compound 32b, 4-(1-acryloyloctahydro-6H-pyrrolo[2,3-c]pyridin-6-yl)-5-fluoro-2,3-dimethyl-1H-indole-7-carboxamide] |
| 0.1 to 0.5 | < 10 | – | 1670 to 16700 | C=CC(=O)N1CCc2c(cccc2-c2c(F)cc(C(N)=O)c3[nH]c(C)c(Cl)c23)C1 (single isomer, unassigned) [Compound 20b] |
| 0.1 to 0.5 | 10 to 100 | – | < 1670 | C=CC(=O)N1CCC2CCN(c3c(F)cc(C(N)=O)c4[nH]c(C)c(Cl)c34)CC21 (single isomer, unassigned) [Compound 29a, 4-(1-acryloyloctahydro-6H-pyrrolo[2,3-c]pyridin-6-yl)-3-chloro-5-fluoro-2-methyl-1H-indole-7-carboxamide] |
| 0.1 to 0.5 | < 10 | – | 1670 to 16700 | C=CC(=O)N1CCc2c(-c3c(F)cc(C(N)=O)c4[nH]c(C)c(Cl)c34)cccc2C1C (racemic) [Compound 22a, 4-(2-acryloyl-1-methyl-1,2,3,4-tetrahydroisoquinolin-5-yl)-3-chloro-5-fluoro-2-methyl-1H-indole-7-carboxamide] |
